Patent EP4792817A1, “COMPOUND AND METHOD FOR TREATING AND/OR […] CANCER OR PR[…] THEREOF” (EnKang Pharmaceuticals (Guangzhou), Ltd., priority 2023, dated 2025)
Converted amounts (≈) assume the structure as drawn. Like-named read-outs stand apart in the source and are kept apart here.

Key:
[1] = for plasma drug concentrations above the LLOQ: topical gel 0.008-0.06 mg/cm^2, LLOQ 0.02 ng/mL
[2] = test system: human liver cancer HepG2 cells; conditions: Patent No. CN 104736157 A; cited from earlier work
[3] = not given; remark: listed apart in the source
[4] = 20 °C
[5] = test system: TE.354.T cells (human cutaneous basal cell carcinoma); experiment: cells; conditions: 72 h, read-out: half-maximal inhibitory concentration
Procedure: The percent inhibition rate of each concentration group was calculated using the following formula: [Inhibition rate = (1 - T/C) × 100%], and the half-maximal inhibitory concentration (IC50) was calculated.

[6] = test system: A431 cells; conditions: 48 hrs
Procedure: (§1) The experimental procedures were as follows: The cells were subcultured in a complete medium containing 10% FBS in an incubator at 37 °C with 5% CO2 and saturated humidity. The cell density was adjusted to (3-5) × 10^4 cells/mL using a complete medium containing 10% FBS. The cell suspension was added to the wells of a 96-well culture plate at 100 µL/well, and the plate was incubated in an incubator at 37 °C with 5% CO2 and saturated humidity overnight (for about 16-24 hrs). Various dose groups of the test substance and a solvent control group were set. On the next day, the original culture medium was discarded. Subsequently, 20% FBS-containing complete medium was added at 100 µL/well, and the test substance or solvent in FBS-free medium was then added at 100 µL/well, resulting in a final FBS concentration of 10%. […]
(§2) After incubation for 48 hrs under the experimental conditions, the supernatant was discarded, and 110 µL of CCK-8 working solution (100 µL of 10% FBS-containing complete medium and 10 µL of CCK-8 solution) were added to each well. The cells were further incubated for 4 hrs, and the optical density value at a wavelength of 450 nm (A450) was then measured for each well using a microplate reader. […]

[7] = test system: SCL-1 cells; conditions: 48 hrs
Procedure: as §1, §2

[8] = test system: COLO-16 cells; conditions: drug substance 0.8 mg/kg; intragastric administration, once every other day; after 21 days of treatment
[9] = test system: COLO-16 cells; experiment: cells; conditions: for IC50: test concentrations in ng/mL
Procedure: The experimental procedures were as follows: The cells were subcultured in a complete medium containing 10% FBS in an incubator at 37 °C with 5% CO2 and saturated humidity. The cell density was adjusted to (3-5) × 10^4 cells/mL using a complete medium containing 10% FBS. The cell suspension was added to the wells of a 96-well culture plate at 100 µL/well, and the plate was incubated in an incubator at 37 °C with 5% CO2 and saturated humidity overnight (for about 16-24 hrs). Various dose groups of the test substance and a solvent control group were set. On the next day, the original culture medium was discarded. Subsequently, 20% FBS-containing complete medium was added at 100 µL/well, and the test substance or solvent in FBS-free medium was then added at 100 µL/well, resulting in a final FBS concentration of 10%. Meanwhile, a negative control group was set: each well received 100 µL of 20% FBS-containing complete medium + 100 µL of incomplete medium containing cells, resulting in a final FBS concentration of 10%. A zero adjustment group (background) was also set: 200 µL of the culture medium alone (100 µL of 20% FBS-containing complete medium + 100 µL of incomplete medium), without drugs and cells. For each concentration group, four replicate wells were set.
After incubation for 48 hrs under the experimental conditions, the supernatant was discarded, and 110 µL of CCK-8 working solution (100 µL of 10% FBS-containing complete medium and 10 µL of CCK-8 solution) were added to each well. The cells were further incubated for 4 hrs, and the optical density value at a wavelength of 450 nm (A450) was then measured for each well using a microplate reader. The average value for the wells of each treatment group (T) was compared with the average value for the negative control wells (C). The percent inhibition rate of each concentration group was calculated using the following formula: [Inhibition rate = (1 - T/C) × 100%], and the half-maximal inhibitory concentration (IC50) was calculated.

CO[C@H]1[C@H](O)[C@H](O[C@H]2CC[C@@]3(C)[C@H](CC[C@@H]4[C@@H]3CC[C@]3(C)[C@@H](C5=CC(=O)OC5)CC[C@]43O)C2)O[C@@H](C)[C@@H]1O [17β-neriifolin]
plasma drug concentrations above the LLOQ ([1]; four Australian subjects): 0.021 to 0.101 ng/mL | plasma drug concentrations above the LLOQ ([1]; seven Chinese subjects): 0.022 to 0.106 ng/mL | dose dependence of systemic exposure ([1]; topical gel, 0.008-0.06 mg/cm^2 dose range): No dose-dependent increase | solubility: ~70 µg/mL (≈ 131 µM) | cell cycle arrest and apoptosis [2]: induce cell cycle arrest and apoptosis | Saturation solubility ([3]; 10% ethanol): 160 µg/mL | Saturation solubility ([3]; 10% propylene glycol): 80 µg/mL | Saturation solubility ([3]; 20% ethanol): 380 µg/mL | Saturation solubility ([3]; 20% propylene glycol): 100 µg/mL | Saturation solubility ([3]; 30% ethanol): 910 µg/mL | Saturation solubility ([3]; 30% propylene glycol): 420 µg/mL | Saturation solubility ([3]; 40% ethanol): 2170 µg/mL | Saturation solubility ([3]; 40% propylene glycol): 750 µg/mL | Dissolution behavior ([4]; Ethanol concentration 20%, sample concentration 8 mg/g): Dissolved | Dissolution behavior ([4]; Ethanol concentration 45%, sample concentration 20 mg/g): Dissolved | Dissolution behavior ([4]; Ethanol concentration 50%, sample concentration 24 mg/g): Dissolved | Dissolution behavior ([4]; Ethanol concentration 66%, sample concentration 32 mg/g): Dissolved | Dissolution behavior ([4]; Ethanol concentration 75%, sample concentration 40 mg/g): Dissolved | Dissolution behavior ([4]; Ethanol concentration 100%, sample concentration 50 mg/g): Dissolved | IC50 [5]: ~0.01 µg/mL (≈ 0.0187 µM) | growth inhibitory effects [6]: strong growth inhibitory effects | growth inhibitory effects [7]: strong growth inhibitory effects | tumor inhibition rate [8]: greater than 80% | Inhibition rate% ([9]; 2.5 ng/mL, 48 hrs): 6.9% | Inhibition rate% ([9]; 25 ng/mL, 48 hrs): 72.7% | Inhibition rate% ([9]; 50 ng/mL, 48 hrs): 77.9% | Inhibition rate% ([9]; 100 ng/mL, 48 hrs): 89.5% | IC50 ([9]; 48 hrs): 12.28 | inhibition at 0.0025 µg/mL ([9]; Homo sapiens, 48 h, read-out: Inhibition rate%, 2.5 ng/mL): 9% | inhibition at 0.025 µg/mL ([9]; Homo sapiens, 48 h, read-out: Inhibition rate%, 25 ng/mL): 57.3% | inhibition at 0.05 µg/mL ([9]; Homo sapiens, 48 h, read-out: Inhibition rate%, 50 ng/mL): 74.5% | inhibition at 0.1 µg/mL ([9]; Homo sapiens, 48 h, read-out: Inhibition rate%, 100 ng/mL): 85.3% | IC50 ([9]; Homo sapiens, 48 h): 0.0186 µg/mL (≈ 0.0348 µM)
